# Assay results: ChEMBL document CHEMBL1201862, “PubChem BioAssay data set” (2004)
# Calls of active or inactive are those of the source.
# Assays:
# [1] = target: 1-acylglycerol-3-phosphate O-acyltransferase ABHD5/Perilipin-5 (Homo sapiens, UniProt Q00G26+Q8WTS1); assay: Luminescence-based biochemical high throughput dose response assay for inhibitors of the interaction of the lipase co-activator protein, abhydrolase domain containing 5 (ABHD5) with perilipin-5 (MLDP; PLIN5) (2K validation set). [Related pubchem assays (depositor defined):AID493035, AID493241]
# [2] = target: T1, Zinc finger protein mex-5 (Caenorhabditis elegans, UniProt Q9XUB2); assay: MEX-5/TCR-2 RNA interaction inhibitors, dose response, biochemical, C. elegans, fluorescence polarization (AID 1960)
# T1 sequence (Q9XUB2 whole entry): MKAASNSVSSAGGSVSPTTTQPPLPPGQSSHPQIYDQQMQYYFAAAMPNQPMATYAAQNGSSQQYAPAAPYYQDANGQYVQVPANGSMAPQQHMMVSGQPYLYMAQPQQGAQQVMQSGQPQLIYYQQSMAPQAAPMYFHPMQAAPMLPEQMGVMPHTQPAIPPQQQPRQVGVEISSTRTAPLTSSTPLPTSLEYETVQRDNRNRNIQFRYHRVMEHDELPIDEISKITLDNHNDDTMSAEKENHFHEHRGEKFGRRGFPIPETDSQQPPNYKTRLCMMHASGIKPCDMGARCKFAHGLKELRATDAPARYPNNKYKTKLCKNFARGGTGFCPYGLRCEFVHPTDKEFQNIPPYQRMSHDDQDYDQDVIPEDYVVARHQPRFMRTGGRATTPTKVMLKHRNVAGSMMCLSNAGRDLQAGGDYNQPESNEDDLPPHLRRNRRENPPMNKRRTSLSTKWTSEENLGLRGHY
# Perilipin-1/ABHD5 = Perilipin-1/ABHD5 (Homo sapiens, UniProt O60240+Q8WTS1); assay: Luminescence-based biochemical high throughput dose response assay for inhibitors of the interaction of the lipase co-activator protein, abhydrolase domain containing 5 (ABHD5) with perilipin-1 (PLIN1) (2K validation set). [Related pubchem assays (depositor defined):AID493027, AID493057]
# [3] = Counterscreen for IDE inhibitors: Luminescence-based cell-based high throughput dose response assay to identify compounds that are cytotoxic to HEK cells. [Related pubchem assays: 434962 (Primary screen (IDE inhibitors in singlicate)), 449730 (Counterscreen (Cytotoxicity in triplicate)), 435028 (Confirmation (IDE inhibitors in triplicate)) …; assay type: functional; conditions: HEK293
# Insulin-degrading enzyme = Insulin-degrading enzyme (Homo sapiens, UniProt P14735); assay: Dose Response: Fluorescence polarization-based cell-based high throughput dose response assay for inhibitors of insulin-degrading enzyme (IDE). [Related pubchem assays: 434962 (Primary screen (IDE inhibitors in singlicate)), 449730 (Counterscreen (Cytotoxicity in triplicate)), 435028 (Confirmation (IDE inhibitors in triplicate)), 434984 (Summary …; assay type: functional
# [4] = target: T2, RNA-binding protein pos-1 (Caenorhabditis elegans, UniProt G5EF15); assay: inhibitors of POS-1/mex-3 RNA binding, dose response, biochemical, fluorescence polarization (AID 1964);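 further: purified POS-1 fused to maltose binding protein made in E. coli; potency of compounds blocking POS-1 binding to fluorescent RNA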
# T2 sequence (G5EF15 whole entry): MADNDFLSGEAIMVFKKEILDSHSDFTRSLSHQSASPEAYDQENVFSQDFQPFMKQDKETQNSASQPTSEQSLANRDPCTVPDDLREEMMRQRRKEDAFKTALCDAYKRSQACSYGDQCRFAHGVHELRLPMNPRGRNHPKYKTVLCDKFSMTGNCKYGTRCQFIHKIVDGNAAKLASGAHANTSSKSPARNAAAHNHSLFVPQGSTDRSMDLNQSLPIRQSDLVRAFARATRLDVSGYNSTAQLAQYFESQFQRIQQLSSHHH
# [5] = growth suppression of PTEN-null colon cells, dose response, cell-based, HCT116 PTEN knockout (AID 1047); assay type: functional;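 further: HCT116 colon tumor cells with PTEN knocked out; cells exposed to compound for 60 hours before readout; potency for loss of cell viability measured by luminescence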
# [6] = target: T3, Alkaline phosphatase, tissue-nonspecific isozyme (Homo sapiens, UniProt P05186); assay: human TNAP enzyme inhibitors, SAR follow-up, biochemical, luminescent, dose response (AID 1056)
# T3 sequence (P05186 whole entry): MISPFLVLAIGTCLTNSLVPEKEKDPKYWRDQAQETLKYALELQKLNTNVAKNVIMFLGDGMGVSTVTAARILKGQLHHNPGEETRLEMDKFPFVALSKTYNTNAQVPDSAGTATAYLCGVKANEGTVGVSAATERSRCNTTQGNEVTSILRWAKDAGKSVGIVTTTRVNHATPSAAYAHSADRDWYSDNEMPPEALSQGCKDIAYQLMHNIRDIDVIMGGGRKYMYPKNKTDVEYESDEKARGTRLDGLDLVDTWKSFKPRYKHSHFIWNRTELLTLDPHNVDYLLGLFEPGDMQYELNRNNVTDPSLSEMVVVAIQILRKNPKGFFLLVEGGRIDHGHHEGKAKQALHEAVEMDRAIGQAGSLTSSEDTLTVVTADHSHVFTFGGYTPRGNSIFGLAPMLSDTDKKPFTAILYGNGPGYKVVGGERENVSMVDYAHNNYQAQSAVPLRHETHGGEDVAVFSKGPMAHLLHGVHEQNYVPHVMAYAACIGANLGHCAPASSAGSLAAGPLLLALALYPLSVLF
# [7] = growth suppression of beta-catenin-knockout colon cells, dose response, cell-based, HCT116, human colon tumor (AID 1045); assay type: functional;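 further: HCT116 colon tumor cells with beta catenin knocked out; cells exposed to compound for 60 hours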
# [8] = target: Alkaline phosphatase, placental type (Homo sapiens, UniProt P05187); assay: PLAP enzyme inhibitors, confirmation, biochemical, luminescence (AID 1512); assay type: functional
# Coagulation factor XII = target: T4, Coagulation factor XII (Homo sapiens, UniProt P00748); assay: FXIIa inhibitor potency, concentration-response, biochemical (AID 716); assay type: functional
# T4 sequence (P00748 whole entry): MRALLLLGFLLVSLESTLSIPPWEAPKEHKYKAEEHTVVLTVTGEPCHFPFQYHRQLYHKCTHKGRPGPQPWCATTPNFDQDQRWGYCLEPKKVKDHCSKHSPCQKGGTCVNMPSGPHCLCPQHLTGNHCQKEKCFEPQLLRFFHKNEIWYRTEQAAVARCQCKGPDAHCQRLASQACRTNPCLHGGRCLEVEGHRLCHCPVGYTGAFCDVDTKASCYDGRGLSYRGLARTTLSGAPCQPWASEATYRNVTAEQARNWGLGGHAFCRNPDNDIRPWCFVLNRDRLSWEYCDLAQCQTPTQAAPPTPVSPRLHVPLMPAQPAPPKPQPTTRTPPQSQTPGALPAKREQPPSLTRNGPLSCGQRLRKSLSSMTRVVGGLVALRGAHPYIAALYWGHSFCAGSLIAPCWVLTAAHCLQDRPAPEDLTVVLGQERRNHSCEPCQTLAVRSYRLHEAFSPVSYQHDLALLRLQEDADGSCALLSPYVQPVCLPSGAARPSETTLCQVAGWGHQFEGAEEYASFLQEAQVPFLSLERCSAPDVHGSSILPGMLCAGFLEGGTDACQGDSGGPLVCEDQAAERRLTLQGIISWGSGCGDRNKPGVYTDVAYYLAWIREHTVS
# [9] = target: T5, Short transient receptor potential channel 4 (Mus musculus, UniProt Q9QUQ5); assay: mouse TRPC4 channel activators, dose response, cell-based, HEK293 TRPC4/mu-opioid, Fluo-4 calcium (AID 434937); assay type: functional
# T5 sequence (Q9QUQ5 whole entry): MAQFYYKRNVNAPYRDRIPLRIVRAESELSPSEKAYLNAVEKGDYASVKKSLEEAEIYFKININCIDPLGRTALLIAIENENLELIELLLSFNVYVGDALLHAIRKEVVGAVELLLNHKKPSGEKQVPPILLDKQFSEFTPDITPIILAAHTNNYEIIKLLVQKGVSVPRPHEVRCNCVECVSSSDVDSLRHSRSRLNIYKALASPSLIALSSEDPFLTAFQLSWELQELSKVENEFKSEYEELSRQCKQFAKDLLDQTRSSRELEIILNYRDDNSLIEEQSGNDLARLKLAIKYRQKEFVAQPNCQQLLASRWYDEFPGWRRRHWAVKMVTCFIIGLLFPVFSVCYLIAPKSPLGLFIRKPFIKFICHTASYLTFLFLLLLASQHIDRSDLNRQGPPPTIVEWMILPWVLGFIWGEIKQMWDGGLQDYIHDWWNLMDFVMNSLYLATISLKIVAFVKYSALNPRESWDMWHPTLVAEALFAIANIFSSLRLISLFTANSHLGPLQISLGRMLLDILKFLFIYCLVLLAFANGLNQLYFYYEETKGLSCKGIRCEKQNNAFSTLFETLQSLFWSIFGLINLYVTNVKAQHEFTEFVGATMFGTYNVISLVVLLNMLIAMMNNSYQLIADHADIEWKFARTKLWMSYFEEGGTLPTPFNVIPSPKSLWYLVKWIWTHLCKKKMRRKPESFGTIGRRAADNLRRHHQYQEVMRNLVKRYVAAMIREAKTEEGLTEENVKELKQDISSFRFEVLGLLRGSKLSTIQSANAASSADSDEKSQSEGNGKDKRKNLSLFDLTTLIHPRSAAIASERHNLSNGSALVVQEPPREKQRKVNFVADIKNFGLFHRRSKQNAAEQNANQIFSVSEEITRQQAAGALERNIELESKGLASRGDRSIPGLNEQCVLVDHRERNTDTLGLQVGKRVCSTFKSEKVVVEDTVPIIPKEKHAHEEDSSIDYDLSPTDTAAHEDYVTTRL
# [10] = Counterscreen for AddAB inhibitors: absorbance-based bacterial cell-based high throughput dose response assay for inhibitors of bacterial viability. [Related pubchem assays (depositor defined):AID435030, AID449728, AID449731, AID488942, AID488955, AID488956]; assay type: functional
# Vero = assay: cells; assay type: functional; conditions: Chlorocebus sabaeus
# Mucolipin-3 = Mucolipin-3 (Homo sapiens, UniProt Q8TDD5); assay: Fluorescence counterscreen assay for […] agonists: dose response cell-based high-throughput screening assay to identify agonists of the transient receptor potential channel ML3 (TRPML3). [Related pubchem assays: 1424, 1448 ]; assay type: functional
# Ion channel NompC = Ion channel NompC (Danio rerio, UniProt Q7T1G6); assay: Dose response cell-based high-throughput screening assay for agonists of the transient receptor potential channel N1 (TRPN1). [Related pubchem assays (depositor defined):AID1424, AID1448]; assay type: functional
# [11] = decrease of PhoP-driven GFP reporter signal, S. Typhimurium, dose response, PhoP regulon inhibitor project, purified and synthesized compounds, set 2 (AID 2831); assay type: functional
# Exodeoxyribonuclease V = Exodeoxyribonuclease V (Escherichia coli (strain K12), UniProt P04993+P07648+P08394); assay: E. coli RecBCD inhibitors, dose response, counter-screen for AddAB inhibitor project, absorbance, V66 E. coli, mutant T4 phage (AID 492957); assay type: functional, cell-based, Escherichia coli str. K-12 substr. MG1655
# [12] = Shn3 3'UTR reporter inhibitors, dose response, cell-based, Clone20 osteoblasts, firefly luciferase, cherry-picked (AID 624132); assay type: functional;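 further: firefly luciferase luminescence from reporter carrying the Shn3 3'UTR in osteoblasts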
# Integrin alpha-L = Integrin alpha-L (Mus musculus, UniProt P24063); assay: modulators of CD8 T cell-vesicle binding, dose response, powder samples, mouse 2C CD8+ cells (AID 504565); assay type: functional
# [13] = target: T6, Tyrosine-protein phosphatase non-receptor type 7 (Homo sapiens, UniProt P35236); assay: HePTP (PTPN7) phosphatase inhibitor potency, SAR follow-up, biochemical, set 2 (AID 449736); assay type: functional
# T6 sequence (P35236 whole entry): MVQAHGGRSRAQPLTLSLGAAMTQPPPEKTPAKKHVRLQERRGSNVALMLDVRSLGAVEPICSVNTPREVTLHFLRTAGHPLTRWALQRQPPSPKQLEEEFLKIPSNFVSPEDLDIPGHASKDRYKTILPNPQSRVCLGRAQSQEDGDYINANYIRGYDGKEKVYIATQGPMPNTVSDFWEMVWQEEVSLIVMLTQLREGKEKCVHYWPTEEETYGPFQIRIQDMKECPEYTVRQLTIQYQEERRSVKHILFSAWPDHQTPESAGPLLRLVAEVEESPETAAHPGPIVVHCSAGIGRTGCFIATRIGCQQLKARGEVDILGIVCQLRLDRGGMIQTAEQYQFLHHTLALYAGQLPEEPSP
# Mu-type opioid receptor = Mu-type opioid receptor (Homo sapiens, UniProt P35372); assay: SAR Analysis of Antagonists of the MOR Receptor using an Image-Based Assay - Set 3. [Related pubchem assays (depositor defined):AID1777, AID1785, AID1786, AID1966, AID2133, AID2136, AID2284, AID2285, AID2420]; assay type: functional
# [14] = target: T7, Kappa-type opioid receptor (Homo sapiens, UniProt P41145); assay: SAR analysis of Antagonists of the Kappa Opioid Receptor (KOR) using an Image-Based Assay - Set 3. [Related pubchem assays (depositor defined):AID1777, AID1785]; assay type: functional
# [15] = target: T7, Kappa-type opioid receptor; assay: SAR analysis of small molecule antagonists of the kappa opioid receptor via a luminescent beta-arrestin assay - Set 3. [Related pubchem assays (depositor defined):AID1777, AID1778, AID1785, AID1786, AID1966, AID2133, AID2136, AID2285, AID2495]; assay type: functional
# [16] = target: Delta-type opioid receptor (Homo sapiens, UniProt P41143); assay: SAR Analysis of Antagonists of the DOR Receptor using an Image-Based Assay - Set 3. [Related pubchem assays (depositor defined):AID1777, AID1785]; assay type: functional;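 further: U2OS cells expressing DOR1 and beta-arrestin GFP stimulated with 100 nM SNC80; imaging of GFP-tagged beta-arrestin moving into spots after receptor activation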
# Chain of Delta-type opioid receptor (P41143 whole entry): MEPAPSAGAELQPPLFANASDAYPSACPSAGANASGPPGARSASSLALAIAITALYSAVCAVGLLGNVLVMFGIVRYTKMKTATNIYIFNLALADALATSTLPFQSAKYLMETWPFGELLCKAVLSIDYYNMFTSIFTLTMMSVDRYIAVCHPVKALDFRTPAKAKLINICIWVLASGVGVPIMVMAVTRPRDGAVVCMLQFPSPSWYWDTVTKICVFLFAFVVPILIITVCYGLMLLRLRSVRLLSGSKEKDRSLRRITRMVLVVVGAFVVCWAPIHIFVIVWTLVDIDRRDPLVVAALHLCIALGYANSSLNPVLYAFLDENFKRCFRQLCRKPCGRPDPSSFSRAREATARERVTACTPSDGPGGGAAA
# T7 sequence (P41145 whole entry): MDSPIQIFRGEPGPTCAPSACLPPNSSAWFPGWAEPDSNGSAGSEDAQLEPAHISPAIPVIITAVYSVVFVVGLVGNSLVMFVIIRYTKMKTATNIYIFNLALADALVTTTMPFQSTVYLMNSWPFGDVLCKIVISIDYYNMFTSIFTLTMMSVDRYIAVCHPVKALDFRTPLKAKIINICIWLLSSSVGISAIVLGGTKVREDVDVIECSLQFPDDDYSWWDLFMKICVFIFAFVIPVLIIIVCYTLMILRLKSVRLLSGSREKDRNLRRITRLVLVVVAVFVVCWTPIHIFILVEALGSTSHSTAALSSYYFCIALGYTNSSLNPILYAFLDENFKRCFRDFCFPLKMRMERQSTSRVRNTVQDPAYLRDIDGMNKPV
# Chain of Ion channel NompC (Q7T1G6 whole entry): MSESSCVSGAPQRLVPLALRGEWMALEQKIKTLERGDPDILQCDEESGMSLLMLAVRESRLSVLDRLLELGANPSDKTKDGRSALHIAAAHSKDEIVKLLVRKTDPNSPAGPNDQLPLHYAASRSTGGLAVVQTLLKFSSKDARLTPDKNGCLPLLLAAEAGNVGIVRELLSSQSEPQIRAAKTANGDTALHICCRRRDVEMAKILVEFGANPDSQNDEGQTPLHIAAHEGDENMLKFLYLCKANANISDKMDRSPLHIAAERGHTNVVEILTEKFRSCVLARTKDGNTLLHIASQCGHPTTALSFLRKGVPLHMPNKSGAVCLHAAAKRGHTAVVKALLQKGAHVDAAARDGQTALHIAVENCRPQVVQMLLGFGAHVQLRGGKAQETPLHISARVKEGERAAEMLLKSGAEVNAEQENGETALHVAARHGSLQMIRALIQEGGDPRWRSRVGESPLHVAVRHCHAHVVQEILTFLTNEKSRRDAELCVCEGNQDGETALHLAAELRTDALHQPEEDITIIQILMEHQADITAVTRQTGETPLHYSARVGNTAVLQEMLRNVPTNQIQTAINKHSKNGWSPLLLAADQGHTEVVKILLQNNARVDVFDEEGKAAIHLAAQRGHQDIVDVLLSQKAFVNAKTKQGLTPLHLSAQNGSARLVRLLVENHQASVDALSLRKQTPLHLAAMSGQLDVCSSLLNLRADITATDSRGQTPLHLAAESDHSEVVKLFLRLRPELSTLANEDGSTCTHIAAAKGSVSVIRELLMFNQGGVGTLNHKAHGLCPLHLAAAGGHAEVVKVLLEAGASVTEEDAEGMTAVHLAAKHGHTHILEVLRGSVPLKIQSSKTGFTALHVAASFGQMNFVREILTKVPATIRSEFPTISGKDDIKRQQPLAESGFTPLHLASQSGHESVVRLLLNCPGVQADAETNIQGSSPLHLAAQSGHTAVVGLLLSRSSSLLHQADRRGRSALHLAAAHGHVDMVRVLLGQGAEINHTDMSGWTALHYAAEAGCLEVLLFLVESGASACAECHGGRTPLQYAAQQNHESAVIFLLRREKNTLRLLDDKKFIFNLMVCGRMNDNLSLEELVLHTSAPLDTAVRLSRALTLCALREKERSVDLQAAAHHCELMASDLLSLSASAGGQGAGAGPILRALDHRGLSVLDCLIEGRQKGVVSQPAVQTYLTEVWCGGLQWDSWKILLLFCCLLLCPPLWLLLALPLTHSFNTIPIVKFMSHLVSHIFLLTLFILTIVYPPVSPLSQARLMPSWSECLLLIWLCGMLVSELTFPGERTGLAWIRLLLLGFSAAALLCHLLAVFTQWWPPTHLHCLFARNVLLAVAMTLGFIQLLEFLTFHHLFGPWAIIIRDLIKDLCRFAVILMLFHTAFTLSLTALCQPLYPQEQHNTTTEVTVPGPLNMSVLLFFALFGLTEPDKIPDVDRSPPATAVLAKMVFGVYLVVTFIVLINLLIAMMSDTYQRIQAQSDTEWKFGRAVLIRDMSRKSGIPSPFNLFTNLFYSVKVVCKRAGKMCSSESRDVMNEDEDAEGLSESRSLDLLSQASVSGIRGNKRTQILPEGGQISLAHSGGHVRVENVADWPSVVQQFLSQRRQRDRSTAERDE
# Chain of 1-acylglycerol-3-phosphate O-acyltransferase ABHD5/Perilipin-5 (Q00G26 whole entry, the tested form may be a part): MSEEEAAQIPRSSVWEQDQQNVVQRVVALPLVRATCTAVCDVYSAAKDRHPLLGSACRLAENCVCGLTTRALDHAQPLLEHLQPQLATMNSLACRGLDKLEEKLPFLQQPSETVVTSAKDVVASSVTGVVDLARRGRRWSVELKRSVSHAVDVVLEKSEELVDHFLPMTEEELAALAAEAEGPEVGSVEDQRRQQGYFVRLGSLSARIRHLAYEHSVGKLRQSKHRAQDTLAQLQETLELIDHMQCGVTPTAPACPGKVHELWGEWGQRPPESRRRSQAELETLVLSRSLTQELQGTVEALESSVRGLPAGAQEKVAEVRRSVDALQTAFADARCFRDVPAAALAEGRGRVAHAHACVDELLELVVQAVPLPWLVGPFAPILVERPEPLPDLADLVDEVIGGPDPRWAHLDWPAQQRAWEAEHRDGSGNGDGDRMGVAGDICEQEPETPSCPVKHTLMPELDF
# Chain of 1-acylglycerol-3-phosphate O-acyltransferase ABHD5/Perilipin-5 (Q8WTS1 whole entry, the tested form may be a part): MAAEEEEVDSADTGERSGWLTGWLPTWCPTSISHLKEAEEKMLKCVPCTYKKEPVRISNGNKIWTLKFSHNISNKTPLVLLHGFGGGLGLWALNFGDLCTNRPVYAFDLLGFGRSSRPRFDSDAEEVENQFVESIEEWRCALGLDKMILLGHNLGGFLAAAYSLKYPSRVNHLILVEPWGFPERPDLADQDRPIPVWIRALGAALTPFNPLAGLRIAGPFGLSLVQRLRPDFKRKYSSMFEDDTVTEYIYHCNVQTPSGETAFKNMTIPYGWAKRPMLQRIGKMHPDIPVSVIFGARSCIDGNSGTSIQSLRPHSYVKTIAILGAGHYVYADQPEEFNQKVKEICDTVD
# Chain of Perilipin-1/ABHD5 (Q8WTS1 whole entry, the tested form may be a part): as above
# Chain of Perilipin-1/ABHD5 (O60240 whole entry, the tested form may be a part): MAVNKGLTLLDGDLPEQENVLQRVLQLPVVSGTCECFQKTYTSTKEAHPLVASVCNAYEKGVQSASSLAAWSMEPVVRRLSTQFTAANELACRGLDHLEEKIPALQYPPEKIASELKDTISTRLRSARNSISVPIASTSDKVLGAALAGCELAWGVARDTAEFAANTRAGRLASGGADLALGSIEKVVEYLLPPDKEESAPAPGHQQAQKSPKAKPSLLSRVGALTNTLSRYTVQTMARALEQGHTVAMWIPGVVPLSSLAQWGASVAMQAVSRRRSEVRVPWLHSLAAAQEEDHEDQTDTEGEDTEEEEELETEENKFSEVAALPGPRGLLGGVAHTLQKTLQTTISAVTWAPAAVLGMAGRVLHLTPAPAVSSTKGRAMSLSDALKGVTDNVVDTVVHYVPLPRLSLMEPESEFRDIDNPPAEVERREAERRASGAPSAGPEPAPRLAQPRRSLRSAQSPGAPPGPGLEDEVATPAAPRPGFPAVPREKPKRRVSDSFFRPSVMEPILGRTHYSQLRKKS
# Chain of Alkaline phosphatase, placental type (P05187 whole entry): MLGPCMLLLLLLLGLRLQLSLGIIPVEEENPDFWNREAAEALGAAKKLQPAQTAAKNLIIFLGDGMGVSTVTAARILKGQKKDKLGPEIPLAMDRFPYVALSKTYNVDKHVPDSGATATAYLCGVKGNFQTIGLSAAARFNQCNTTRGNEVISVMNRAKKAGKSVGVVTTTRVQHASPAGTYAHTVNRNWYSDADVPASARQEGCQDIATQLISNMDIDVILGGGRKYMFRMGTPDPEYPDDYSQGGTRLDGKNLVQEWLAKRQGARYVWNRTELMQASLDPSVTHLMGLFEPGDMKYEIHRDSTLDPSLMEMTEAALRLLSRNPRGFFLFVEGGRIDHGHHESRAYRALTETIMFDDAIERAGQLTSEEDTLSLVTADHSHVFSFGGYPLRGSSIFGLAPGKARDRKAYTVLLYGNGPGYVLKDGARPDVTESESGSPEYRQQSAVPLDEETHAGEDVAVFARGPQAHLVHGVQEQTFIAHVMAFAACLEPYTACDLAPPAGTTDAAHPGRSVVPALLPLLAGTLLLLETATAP
# Chain of Mu-type opioid receptor (P35372 whole entry): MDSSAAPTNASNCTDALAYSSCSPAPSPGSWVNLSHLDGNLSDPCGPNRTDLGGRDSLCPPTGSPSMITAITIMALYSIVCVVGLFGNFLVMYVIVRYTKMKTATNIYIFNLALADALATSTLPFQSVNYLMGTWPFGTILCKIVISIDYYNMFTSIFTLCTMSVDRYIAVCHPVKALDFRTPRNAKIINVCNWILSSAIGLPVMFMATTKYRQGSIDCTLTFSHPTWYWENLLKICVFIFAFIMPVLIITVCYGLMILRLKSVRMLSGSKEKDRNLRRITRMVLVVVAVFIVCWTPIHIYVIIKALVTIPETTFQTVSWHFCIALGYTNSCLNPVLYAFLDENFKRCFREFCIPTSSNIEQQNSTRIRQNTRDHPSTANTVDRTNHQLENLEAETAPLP
smiles,measurement,setting,value
CS(=O)(=O)Oc1ccc2c(c1)O/C(=C\C=C\c1ccccc1)C2=O,IC50,[1],17.6 µM (inactive)
same,EC50,[2],3.83 µM (active)
same,IC50,Perilipin-1/ABHD5,11 µM (inactive)
same,IC50,[3],19.4 µM (not active)
same,IC50,Insulin-degrading enzyme,> 55.9 µM (not active)
same,EC50,[4],5.46 µM (active)
O=C(NC1(C(F)(F)F)Oc2ccccc2O1)N1CCCC1,EC50,[5],15.4 µM (active)
same,IC50,[6],> 100 µM (inactive)
same,EC50,[7],18 µM (active)
same,IC50,[8],80.9 µM (active)
COc1ccc(-c2nnc(SCC(=O)Nc3cc(C)on3)n2N)cc1OC,IC50,Coagulation factor XII,> 50 µM (inactive)
O=C(Nc1nnc(-c2cccs2)o1)c1cccc(C(F)(F)F)c1,EC50,[9],11.9 µM (active)
same,IC50,[10],> 39.5 µM (inactive)
same,CC50,Vero,> 25 µM (active)
same,EC50,Mucolipin-3,4.5 µM (active)
same,EC50,Ion channel NompC,3.33 µM (active)
same,IC50,[11],> 125 µM (active)
same,IC50,Exodeoxyribonuclease V,68.2 µM (inactive)
CN(CC(=O)Nc1cc(S(=O)(=O)N2CCCC2)ccc1Cl)Cc1ccc2c(c1)OCO2,AC50,[12],13.1 µM (active)
same,EC50,Integrin alpha-L,197 nM (active)
Cc1ccccc1-n1c(N)c(C(=O)N2CCOCC2)sc1=S,IC50,[13],> 100 µM (inactive)
Cc1ccc(S(=O)(=O)NCc2ccc(C(=O)NCCN3Cc4ccccc4C3)cc2)cc1,IC50,Mu-type opioid receptor,> 32 µM (inactive)
same,IC50,[14],> 32 µM (inactive)
same,IC50,[15],> 20 µM (inactive)
same,IC50,[16],> 32 µM (inactive)
